From ChEMBL document CHEMBL2046330, “Structure-based design of novel benzoxazinorifamycins with potent binding affinity to wild-type and rifampin-resistant mutant Mycobacterium tuberculosis RNA polymerases” (J Med Chem, 2012) come the findings set out here.

A short description of data set [1]: Metabolic stability in human microsomes assessed as compound remaining after 30 mins. The data set is classed as ADME, Microsome. The following applies: read-out: Stability.
Data set [2] is described as follows: Half life in human microsomes. Type of data set: ADME, Microsome.
The test system of data set [3] is Blood. Kind of data set: Drug uptake in BALB/c mouse blood at 10 mg/kg, po administered as single dose. Type of data set: ADME, organism-based. The arrangement: dose 10 mg/kg, route oral. The following applies: in vivo, BLD = below limit of detection.
In data set [4] the test system is Mycobacterium tuberculosis. Kind of data set: microbe, parasite or virus in culture. The following applies: H37Rv, 264 h.
Description: Antitubercular activity against Mycobacterium tuberculosis H37Rv in anaerobic conditions after 11 days by luminescnece-based low-oxygen recovery assay
The nature of data set [5]: Tmax in BALB/c mouse at 10 mg/kg, po administered qd for 5 days. Type of data set: ADME, organism-based. More on the design: dose 10 mg/kg, route oral. To be noted: in vivo.
The test system of a further data set is Mus musculus. The data set can be described thus: Ratio of Cmax in BALB/c mouse at 10 mg/kg, po administered qd for 5 days to Cmax in BALB/c mouse at 10 mg/kg, po administered as single dose. The data set is classed as ADME, organism-based. The following applies: in vivo, 120 h.
The nature of data set [6]: Metabolic stability in mouse microsomes assessed as compound remaining after 30 mins. The data set is classed as ADME, Microsome. To be noted: read-out: Stability.
The nature of data set [7]: T>MIC in BALB/c mouse at 10 mg/kg, po administered qd for 5 days. Type of data set: functional.
Data set [8] in a line: Inhibition of Mycobacterium tuberculosis wild type RNA polymerase by rolling circle transcription assay in the presence of sigmaA factor.
The nature of data set [9]: Cmax in BALB/c mouse at 10 mg/kg, po administered as single dose. Type of data set: ADME, organism-based. More on the design: dose 10 mg/kg, route oral. To be noted: in vivo.
Data set [10] is described as follows: Selectivity index, ratio of cytotoxicity against human DPX2 cells to IC50 for Mycobacterium wild type RNA polymerase. Type of data set: toxicity, cell-based. The following applies: read-out: Selectivity Index.
A short description of data set [11]: Cytotoxicity against human DPX2 cells expressing PXR assessed as decrease in cell viability at >6.25 uM after 24 hrs. The data set is classed as ADME, cell-based. To be noted: dpx2, 24 h.
Data set [12] is described as follows: Half life in mouse microsomes. Type of data set: ADME, Microsome.
Data set [13] can be described thus: Tmax in BALB/c mouse at 10 mg/kg, po administered as single dose. More on the design: dose 10 mg/kg, route oral. To be noted: in vivo. Type of data set: ADME, organism-based.
The nature of data set [14]: Apparent plasma half life in BALB/c mouse at 10 mg/kg, po administered qd for 5 days. Type of data set: ADME, organism-based. To be noted: read-out: t1/2(app) (converted). The arrangement: dose 10 mg/kg, route oral.
A short description of data set [15]: Inhibition of Mycobacterium tuberculosis wild type RNA polymerase by rolling circle transcription assay in the absence of sigmaA factor.
The test system of data set [16] is Mycobacterium tuberculosis. The data set can be described thus: microbe, parasite or virus in culture. To be noted: H37Rv, 168 h.
Description: Antitubercular activity against Mycobacterium tuberculosis H37Rv in aerobic conditions after 7 days by microplate-based alamar blue assay
Data set [17] can be described thus: Cmax in BALB/c mouse at 10 mg/kg, po administered qd for 5 days. Type of data set: ADME, organism-based. The arrangement: dose 10 mg/kg, route oral. The following applies: in vivo.
Data set [18] has as its target T1, PXR (NR1I2) (Homo sapiens, UniProt O75469).
T1 sequence (O75469 whole entry): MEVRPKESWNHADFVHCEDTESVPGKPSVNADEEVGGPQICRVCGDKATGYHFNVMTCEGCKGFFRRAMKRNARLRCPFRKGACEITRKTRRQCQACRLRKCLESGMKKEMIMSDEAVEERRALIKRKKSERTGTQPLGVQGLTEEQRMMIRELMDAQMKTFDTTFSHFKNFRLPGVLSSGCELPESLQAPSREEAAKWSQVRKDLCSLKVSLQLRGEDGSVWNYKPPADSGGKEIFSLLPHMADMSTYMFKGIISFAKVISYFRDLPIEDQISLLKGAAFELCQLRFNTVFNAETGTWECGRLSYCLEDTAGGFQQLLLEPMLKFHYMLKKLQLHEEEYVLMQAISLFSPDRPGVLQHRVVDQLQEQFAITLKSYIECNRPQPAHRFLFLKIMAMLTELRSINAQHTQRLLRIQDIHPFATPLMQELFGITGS
The data set can be described thus: Activation of PXR in human DPX2 cells at 6.25 uM after 24 hrs by luciferase reporter gene assay relative to control. The data set is classed as cell-based. The following applies: read-out: FC.

The test system of data set [19] is Blood. Kind of data set: Drug uptake in BALB/c mouse blood at 10 mg/kg, po administered qd for 5 days. The data set is classed as ADME, organism-based. The arrangement: dose 10 mg/kg, route oral. To be noted: in vivo, 120 h.
Data set [20] is described as follows: Drug uptake in BALB/c mouse lung at 10mg/kg, po administered qd for 5 days. The data set is classed as ADME, organism-based. The following applies: read-out: Drug uptake.
The nature of data set [21]: Cytotoxicity against human DPX2 cells expressing PXR assessed as decrease in cell viability at 25 uM after 24 hrs. Type of data set: ADME, cell-based. To be noted: dpx2, 24 h.
In data set [22] the target is T2, Nuclear receptor subfamily 1 group I member 2 (Homo sapiens, UniProt O75469).
T2 sequence (O75469 whole entry): T1 sequence (O75469 whole entry)
The data set can be described thus: Activation of PXR in human DPX2 cells after 24 hrs by luciferase reporter gene assay. The data set is classed as cell-based.

For data set [23], the target named is T1, PXR (NR1I2). The data set can be described thus: Activation of PXR in human DPX2 cells after 24 hrs by luciferase reporter gene assay relative to control. The following applies: read-out: FC. Type of data set: cell-based.
Data set [24] can be described thus: Cytotoxicity against human DPX2 cells expressing PXR assessed as decrease in cell viability at 100 uM after 24 hrs relative to control. The data set is classed as ADME, cell-based. The following applies: dpx2, 24 h.
Data set [25] is described as follows: Half life in human. The data set is classed as ADME, organism-based. The following applies: in vivo.
Data set [26] concerns the target T1, PXR (NR1I2). Kind of data set: Activation of PXR in human DPX2 cells at 100 uM after 24 hrs by luciferase reporter gene assay relative to control. To be noted: read-out: FC. The data set is classed as cell-based.
Data set [27] has as its target T2, Nuclear receptor subfamily 1 group I member 2. Kind of data set: Activation of PXR in human DPX2 cells at <100 uM after 24 hrs by luciferase reporter gene assay. Type of data set: cell-based. To be noted: dpx2, 24 h.

pEC50, pIC50: −log10 of the molar value. Converted amounts (≈) assume the structure as drawn.

Turning to `CCN(CC)CCOc1cccc2oc3c4c(=O)c5c(O)c(C)c6c(c5c-3nc12)C(=O)[C@@](C)(O/C=C/[C@H](OC)[C@@H](C)[C@@H](OC(C)=O)[C@H](C)[C@H](O)[C@H](C)[C@@H](O)[C@@H](C)/C=C/C=C(/C)C(=O)N4)O6`, the remaining at 0.5 h in [1] came to 68%; in [6] it was 86%. The half-life in data set [2] is 0.9 h; in data set [12], 2.35 h; in data set [14], 1 h. The Drug uptake entry in the data set with Blood [3] is on record as “BLD”; in the data set on Blood [19], “Active”. Further, the MIC90 amounted to 0.37 µM (≈ 0.333 µg/mL) in [4] and 0.02 µM (≈ 0.018 µg/mL) in data set [16]. The Tmax in [5] turned out to be 2 h; in [13], 1 h. In the data set on Mus musculus, the Ratio is listed as 100. Also, the “T>MIC” value in [7] was determined as 4 h. Besides, the pIC50 in data set [8] and in [15] was more than 8.00 each time. Besides, the figures for the Cmax in data set [9] and in data set [17] were 18.5 nM and 1740 nM, respectively. Moreover, in [10], the selectivity ratio is 1000. Further, the Activity result in data set [11] is recorded as “Toxic”. Further, the fold induction at 24 h, 6.25 µM at PXR (NR1I2) [18] was 3. Further, the concentration at 120 h in [20] turned out to be 400 nM.

`CO[C@H]1/C=C/O[C@@]2(C)Oc3c(C)c(O)c4c(=O)c(c5oc6cccc(OCCCCN7CCN(CCn8ccnc8)CC7)c6nc-5c4c3C2=O)NC(=O)/C(C)=C\C=C\[C@H](C)[C@H](O)[C@@H](C)[C@@H](O)[C@@H](C)[C@H](OC(C)=O)[C@@H]1C`: the values for the MIC90 in [4] and in [16] were 0.35 µM (≈ 0.362 µg/mL) and 0.08 µM (≈ 0.0828 µg/mL), respectively. The pIC50 in data set [8] and in data set [15] was more than 8.00 in each case. Further, in data set [10], the selectivity ratio worked out at 1000. In data set [11], the Activity entry was “Toxic”. Moreover, at PXR (NR1I2) [18], the fold induction at 24 h, 6.25 µM was found to be 3.

With `CO[C@H]1/C=C/O[C@@]2(C)Oc3c(C)c(O)c4c(=O)c(c5oc6cccc(OCCCCN7CCN(C(=O)Cn8ccnc8)CC7)c6nc-5c4c3C2=O)NC(=O)/C(C)=C\C=C\[C@H](C)[C@H](O)[C@@H](C)[C@@H](O)[C@@H](C)[C@H](OC(C)=O)[C@@H]1C`, the Activity entry in data set [21] is “Toxic”. The MIC90 amounted to 0.4 µM (≈ 0.42 µg/mL) in [4] and 0.07 µM (≈ 0.0734 µg/mL) in [16]. This compound also gave a pEC50 in [22] of 5.26. Besides, the pIC50 in data set [8] and in data set [15] was more than 8.00 in each case. Also, on PXR (NR1I2) [23], the fold induction at 24 h was 5.9.

In the case of `NNC(=O)c1ccncc1` [ISONIAZID], the MIC90 is more than 128 µM in [4] and 0.24 µM (≈ 0.0329 µg/mL) in data set [16].

`COc1c(N2C[C@@H]3CCCN[C@@H]3C2)c(F)cc2c(=O)c(C(=O)O)cn(C3CC3)c12` [MOXIFLOXACIN] had an MIC90 in data set [16] of 0.46 µM (≈ 0.185 µg/mL).

Regarding `O=[N+]([O-])c1cn2c(n1)OC[C@@H](OCc1ccc(OC(F)(F)F)cc1)C2` [PRETOMANID], in [4], the MIC90 is 2.53 µM (≈ 0.909 µg/mL).

With `CO[C@H]1/C=C/O[C@@]2(C)Oc3c(C)c(O)c4c(=O)c(c5oc6cc(N7CCN(CC(C)C)CC7)cc(O)c6nc-5c4c3C2=O)NC(=O)/C(C)=C\C=C\[C@H](C)[C@H](O)[C@@H](C)[C@@H](O)[C@@H](C)[C@H](OC(C)=O)[C@@H]1C` [RIFALAZIL], the remaining at 0.5 h in data set [1] stood at 73%; in data set [6], 67%. Moreover, the half-life in [2] is 1.08 h; in data set [25], 60 h; in [12], 0.883 h. Also, the “fold change (FC)” value in [24] worked out at 2. Also, the MIC90 in data set [4] is less than 0.017 µM; in data set [16] it was less than 0.004 µM. Further, at PXR (NR1I2) [26], the fold induction at 24 h, 100 µM was determined as 2. Moreover, the Activity entry in data set [27] is “Not Active”. Moreover, the pIC50 in data set [8] was more than 8.00; in data set [15], 7.94.

Regarding `CO[C@H]1/C=C/O[C@@]2(C)Oc3c(C)c(O)c4c(O)c(c(/C=N/N5CCN(C)CC5)c(O)c4c3C2=O)NC(=O)/C(C)=C\C=C\[C@H](C)[C@H](O)[C@@H](C)[C@@H](O)[C@@H](C)[C@H](OC(C)=O)[C@@H]1C` [RIFAMPIN], the figures for the MIC90 in data set [4] and in [16] were 0.46 µM (≈ 0.379 µg/mL) and 0.13 µM (≈ 0.107 µg/mL), respectively.

Regarding `CN[C@@H]1[C@H](O[C@H]2[C@H](O[C@H]3[C@H](O)[C@@H](O)[C@H](N=C(N)N)[C@@H](O)[C@@H]3N=C(N)N)O[C@@H](C)[C@]2(O)C=O)O[C@@H](CO)[C@H](O)[C@H]1O` [STREPTOMYCIN], the MIC90 in data set [16] worked out at 0.46 µM (≈ 0.268 µg/mL).
